Experimental data: ChEMBL document CHEMBL4402557, “Nidufexor (LMB763), a Novel FXR Modulator for the Treatment of Nonalcoholic Steatohepatitis” (J Med Chem, 2020)
In brackets after ≈: the same amount, converted by molar mass. Activity calls are given as the source filed them. The calls are words filed in the database; no cut-off is given here.

Experiments:
[1] = Oral bioavailability in Wistar rat at 100 mg/kg; type: ADME, organism-based; settings: in vivo
[2] = Volume of distribution at steady state in mouse at 3 mg/kg, iv; type: ADME, organism-based; settings: in vivo, read-out: Vdss
[3] = target: T1, Retinoic acid receptor RXR-alpha (Homo sapiens, UniProt P19793); test: Agonist activity at GAL4-fused RXR LBD (unknown origin) expressed in HEK293T cells incubated for 24 by BrightGlo reagent based assay; type: cell-based
T1 sequence (P19793 whole entry): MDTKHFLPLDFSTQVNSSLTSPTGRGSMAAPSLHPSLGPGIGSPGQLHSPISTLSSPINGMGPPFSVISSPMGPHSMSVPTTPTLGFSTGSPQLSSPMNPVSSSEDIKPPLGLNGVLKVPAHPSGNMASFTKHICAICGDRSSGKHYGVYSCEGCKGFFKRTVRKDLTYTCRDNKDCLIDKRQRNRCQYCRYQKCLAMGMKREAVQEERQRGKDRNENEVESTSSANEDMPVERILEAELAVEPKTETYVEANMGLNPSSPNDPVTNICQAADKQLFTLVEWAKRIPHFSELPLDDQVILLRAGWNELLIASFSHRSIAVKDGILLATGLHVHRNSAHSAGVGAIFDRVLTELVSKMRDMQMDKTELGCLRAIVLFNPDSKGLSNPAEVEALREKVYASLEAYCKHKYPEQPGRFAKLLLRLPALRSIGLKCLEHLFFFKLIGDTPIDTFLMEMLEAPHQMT

[4] = system: Mus musculus; test: Anti Steato-hepatitic activity in STZ/HFD induced oral dosed C57BL/6J mouse STAM model assessed as reduction in inflammatory cell infiltration administered via oral gavage once daily for 3 weeks and measured on 9 week by H and E staining based assay; type: functional, organism-based
[5] = Oral bioavailability in Wistar rat at 30 mg/kg; type: ADME, organism-based; settings: in vivo
[6] = Half life in Wistar rat at 3 mg/kg, iv; type: ADME, organism-based; settings: in vivo
[7] = Oral bioavailability in Wistar rat at 10 mg/kg in presence of 0.5% CMC/0.5% Tween 80; type: ADME, organism-based; settings: in vivo
[8] = Oral bioavailability in Wistar rat at 10 mg/kg in presence of PEG 300/D5W(3:1); type: ADME, organism-based; settings: in vivo
[9] = target: T2, G-protein coupled bile acid receptor 1 (Homo sapiens) (UniProt Q8TDU6); test: Agonist activity at human GPBAR1 expressed in Jurkat cells assessed as increase in intracellular cAMP level incubated for 1 hr by fluorescence based assay relative to control; type: functional, cell-based
T2 sequence (whole entry): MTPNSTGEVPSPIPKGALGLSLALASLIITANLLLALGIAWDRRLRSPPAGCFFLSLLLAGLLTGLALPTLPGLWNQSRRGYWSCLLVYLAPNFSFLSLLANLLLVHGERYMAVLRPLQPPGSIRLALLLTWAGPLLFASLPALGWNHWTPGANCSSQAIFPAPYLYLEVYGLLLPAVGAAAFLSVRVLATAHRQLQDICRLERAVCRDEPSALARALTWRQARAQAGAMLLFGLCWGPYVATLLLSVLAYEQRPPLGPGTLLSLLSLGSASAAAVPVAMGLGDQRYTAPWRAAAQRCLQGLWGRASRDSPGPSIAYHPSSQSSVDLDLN

[10] = Permeability of the compound by PAMPA; type: ADME
[11] = system: Mus musculus; test: Anti Steato-hepatitic activity in STZ/HFD induced C57BL/6J mouse STAM model assessed as reduction in fibrosis at 3 to 30 mg/kg, po administered via oral gavage once daily for 3 weeks and measured on 9 week by Picro-Sirius Red staining based assay; type: functional, organism-based
[12] = Oral bioavailability in Wistar rat at 100 mg/kg in presence of TRIS salt; type: ADME, organism-based; settings: in vivo
[13] = system: Mus musculus; test: Anti Steato-hepatitic activity in STZ/HFD induced oral dosed C57BL/6J mouse STAM model assessed as reduction in microvesicular fat deposition administered via oral gavage once daily for 3 weeks and measured on 9 week by H and E staining based assay; type: functional, organism-based
[14] = system: Mus musculus; test: Anti Steato-hepatitic activity in STZ/HFD induced oral dosed C57BL/6J mouse STAM model assessed as reduction in macrovesicular fat deposition administered via oral gavage once daily for 3 weeks and measured on 9 week by H and E staining based assay; type: functional, organism-based
[15] = Ratio of AUC in Brain to plasma in Wistar rat […] at 10 mg/kg, po; type: ADME, organism-based; settings: read-out: Ratio AUC
[16] = system: Mus musculus; test: Anti Steato-hepatitic activity in STZ/HFD induced oral dosed C57BL/6J mouse STAM model assessed as reduction in hepatocellular ballooning administered via oral gavage once daily for 3 weeks and measured on 9 week by H and E staining based assay; type: functional, organism-based
[17] = Solubility of compound in pH 6.5 FASSIF at 2 mg measured for 5 to 60 mins by UV spectroscopic method; type: physicochemical
[18] = system: Rattus norvegicus; test: In-vivo agonist activity at FXR in Han Wistar rat assessed as upregulation of FGF15 protein level in serum at 1.5 mg/kg administered via oral gavage once daily for 14 days measured 10 hrs post last dose relative to control; type: functional
[19] = species on record: Mus musculus; test: Anti Steato-hepatitic activity in C57BL/6J mouse STAM model assessed as change in Map3k13 gene level in liver; type: functional, organism-based
[20] = target: T3, Bile acid receptor (Homo sapiens, UniProt Q96RI1); test: Agonist activity at FXR transfected in human HEK293T cells o-expressing pGL3/hBSEP/luc incubated for 24 hrs by Steady-Glo reagent based luciferase reporter gene assay; type: cell-based
T3 sequence (Q96RI1 whole entry): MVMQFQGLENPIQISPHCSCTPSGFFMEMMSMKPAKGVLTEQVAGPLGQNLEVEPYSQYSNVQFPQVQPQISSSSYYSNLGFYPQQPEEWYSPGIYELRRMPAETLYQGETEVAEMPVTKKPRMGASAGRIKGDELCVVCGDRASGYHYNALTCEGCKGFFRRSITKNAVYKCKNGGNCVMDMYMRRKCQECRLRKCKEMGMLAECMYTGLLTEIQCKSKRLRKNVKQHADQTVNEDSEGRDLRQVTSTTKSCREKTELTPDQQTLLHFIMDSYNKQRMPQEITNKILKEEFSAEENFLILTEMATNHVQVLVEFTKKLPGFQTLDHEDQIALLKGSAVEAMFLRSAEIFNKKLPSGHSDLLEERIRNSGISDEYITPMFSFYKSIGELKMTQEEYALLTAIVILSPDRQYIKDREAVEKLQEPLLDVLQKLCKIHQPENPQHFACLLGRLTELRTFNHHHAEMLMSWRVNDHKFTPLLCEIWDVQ

[21] = Cmax in Wistar rat at 300 mg/kg, po; type: ADME, organism-based; design: dose 300 mg/kg, route oral; settings: in vivo

For `Cn1nc(C(=O)N(Cc2ccccc2)Cc2ccc(C(=O)O)cc2)c2c1-c1cc(Cl)ccc1OC2` [NIDUFEXOR], the bioavailability [1] was 82%, the Vd [2] was 0.9 L/kg and the EC50 [3] was > 10 µM. For the same compound, the Activity [4] was “Dose-dependent effect”, the bioavailability [5] was 52% and the half-life [6] was 3 h. The bioavailability [7] was 10%, the bioavailability [8] was 51% and the Efficacy [9] was 13%. The permeability [10] was 94%, the Activity [11] was “Active” and the bioavailability [12] was 82%. The Activity [13] was “Dose-dependent effect”, the Activity [14] was “Dose-dependent effect” and the Kp [15] was 0.05. The Activity [16] was “Dose-dependent effect”, the solubility [17] was 3 µM (≈ 1.46 µg/mL) and the “fold change (FC)” value [18] was 3.5. The Activity [19] was “Active”, the EC50 [20] was 0.032 µM and the Cmax [21] was 141 µM.
